Our source for the Selectivity ratio and CC50 values is ChEMBL document CHEMBL4387766, “Synthesis and biological evaluation of PSMA-targeting paclitaxel conjugates” (Bioorg Med Chem Lett, 2019).

The nature of data set [1]: Selectivity ratio of CC50 for human VA13 cells to CC50 for PSMA-positive human 22Rv1 cells.
For data set [2], the system named is LNCaP. Description: Cytotoxicity against PSMA-positive human LNCAP cells assessed as reduction in cell viability measured after 72 hrs by MTT assay. The format is functional.
Data set [3] in a line: Cytotoxicity against human VA13 cells assessed as reduction in cell viability measured after 72 hrs by MTT assay. The format is cell-based. The conditions noted are these: WI-38 VA13 cells.
Data set [4] in a line: Selectivity ratio of CC50 for human PSMA-deficient PC3 cells to CC50 for PSMA-positive human LNCAP cells. The format is functional.
Data set [5] deals with CWR22R. Description: Cytotoxicity against PSMA-positive human 22Rv1 cells assessed as reduction in cell viability measured after 72 hrs by MTT assay. The format is functional. Particulars: 22Rv1, 72 h.
In data set [6] the test system is PC-3. Description: Cytotoxicity against PSMA-deficient human PC3 cells assessed as reduction in cell viability measured after 72 hrs by MTT assay. The format is functional. Particulars: PC-3, 72 h.
Data set [7] is described as follows: Cytotoxicity against human A549 cells assessed as reduction in cell viability measured after 72 hrs by MTT assay. The format is cell-based.
Data set [8] can be described thus: Cytotoxicity against HEK293T cells assessed as reduction in cell viability measured after 72 hrs by MTT assay. The data set is classed as cell-based, HEK-293T. The conditions noted are these: human.
Data set [9] can be described thus: Selectivity ratio of CC50 for human PSMA-deficient PC3 cells to CC50 for PSMA-positive human 22Rv1 cells. The data set is classed as functional.
Data set [10] can be described thus: Selectivity ratio of CC50 for human VA13 cells to CC50 for PSMA-positive human LNCAP cells.
Data set [11] in a line: Cytotoxicity against human MCF7 cells assessed as reduction in cell viability measured after 72 hrs by MTT assay. The format is cell-based.

Some results are limits rather than exact numbers.

On to `CC(=O)O[C@H]1C(=O)[C@@]2(C)[C@H]([C@H](OC(=O)c3ccccc3)[C@]3(O)C[C@H](OC(=O)[C@H](OC(=O)CCCc4cn(CCCCCC(=O)N(CCCC[C@H](NC(=O)N[C@@H](CCC(=O)O)C(=O)O)C(=O)O)Cc5ccc(F)cc5)nn4)[C@@H](NC(=O)c4ccccc4)c4ccccc4)C(C)=C1C3(C)C)[C@]1(OC(C)=O)CO[C@@H]1C[C@@H]2O`, for which the Selectivity ratio in data set [1] came to 0.48; in data set [4], 1.01; in data set [9], 0.82; in data set [10] it was 0.59. Besides, the CC50 in data set [2] was found to be 365 nM; in [5], 1320 nM; in data set [6], 740 nM. The CC50 at 72 h was under 30 nM in data set [3], under 30 nM in [7], under 30 nM in [8] and 49 nM in data set [11].

Regarding `CC(=O)O[C@H]1C(=O)[C@@]2(C)[C@H]([C@H](OC(=O)c3ccccc3)[C@]3(O)C[C@H](OC(=O)[C@H](OC(=O)CCCc4cn(CCCCCNC(=O)NCCCC[C@H](NC(=O)N[C@@H](CCC(=O)O)C(=O)O)C(=O)O)nn4)[C@@H](NC(=O)c4ccccc4)c4ccccc4)C(C)=C1C3(C)C)[C@]1(OC(C)=O)CO[C@@H]1C[C@@H]2O`, the Selectivity ratio is 0.61 in data set [1], 0.99 in data set [4], 1.09 in [9] and 0.56 in data set [10]. The CC50 in data set [2] turned out to be 13 nM; in [5], 34 nM; in data set [6], 25 nM. For the same compound, the CC50 at 72 h in data set [3] is 37 nM; in data set [8] it was 14 nM; in data set [11], 56 nM.

As to `CC(=O)O[C@H]1C(=O)[C@]2(C)[C@@H](OC(=O)CCCc3cn(CCCCCCCCCCC(=O)NCCCC[C@H](NC(=O)N[C@@H](CCC(=O)O)C(=O)O)C(=O)O)nn3)C[C@H]3OC[C@@]3(OC(C)=O)[C@H]2[C@H](OC(=O)c2ccccc2)[C@]2(O)C[C@H](OC(=O)[C@H](O)[C@@H](NC(=O)c3ccccc3)c3ccccc3)C(C)=C1C2(C)C`, the Selectivity ratio was determined as 0.59 in data set [1], 1.43 in data set [4], 1.61 in data set [9] and 0.53 in [10]. Further, the CC50 in data set [2] is 1010 nM; in data set [5], 2640 nM; in [6], 2920 nM. Moreover, the CC50 at 72 h in data set [3] came to 1160 nM; in [7], 632 nM; in [8], 730 nM; in data set [11], 1210 nM.

On to `CC(=O)O[C@H]1C(=O)[C@@]2(C)[C@H]([C@H](OC(=O)c3ccccc3)[C@]3(O)C[C@H](OC(=O)[C@H](OC(=O)CCCc4cn(CCCCCCCCCCC(=O)N(CCCC[C@H](NC(=O)N[C@@H](CCC(=O)O)C(=O)O)C(=O)O)Cc5ccc(F)cc5)nn4)[C@@H](NC(=O)c4ccccc4)c4ccccc4)C(C)=C1C3(C)C)[C@]1(OC(C)=O)CO[C@@H]1C[C@@H]2O`, for which the Selectivity ratio in [1] is recorded as 0.65; in [4], 0.51; in data set [9], 0.62; in data set [10] it was 0.54. Also, the CC50 in data set [2] was found to be 467 nM; in data set [5], 1140 nM; in data set [6], 479 nM. Besides, the cytotoxic concentration (CC50) at 72 h is 27 nM in data set [3], under 30 nM in [7], 41 nM in data set [8] and 66 nM in data set [11].

For the compound `CC(=O)O[C@H]1C(=O)[C@@]2(C)[C@H]([C@H](OC(=O)c3ccccc3)[C@]3(O)C[C@H](OC(=O)[C@H](OC(=O)CCCc4cn(CCCCCCCCCCC(=O)NCCCC[C@H](NC(=O)N[C@@H](CCC(=O)O)C(=O)O)C(=O)O)nn4)[C@@H](NC(=O)c4ccccc4)c4ccccc4)C(C)=C1C3(C)C)[C@]1(OC(C)=O)CO[C@@H]1C[C@@H]2O`, the Selectivity ratio in data set [1] is 0.85; in [4], 0.99; in [9] it was 1.2; in data set [10], 0.7. Also, the figures for the CC50 in data set [2], in data set [5] and in [6] were 835 nM, 1000 nM and 1230 nM, respectively. For the same compound, the CC50 at 72 h in [3] was 66 nM; in [7], 20 nM; in data set [8], 294 nM; in data set [11], 189 nM.

As for `CC(=O)O[C@H]1C(=O)[C@@]2(C)[C@H]([C@H](OC(=O)c3ccccc3)[C@]3(O)C[C@H](OC(=O)[C@H](OC(=O)CCCc4cn(CCCCCCCCCCC(=O)N(CCCC[C@H](NC(=O)N[C@@H](CCC(=O)O)C(=O)O)C(=O)O)Cc5ccc(Br)cc5)nn4)[C@@H](NC(=O)c4ccccc4)c4ccccc4)C(C)=C1C3(C)C)[C@]1(OC(C)=O)CO[C@@H]1C[C@@H]2O`, the Selectivity ratio is recorded as 1.46 in [1], 0.18 in data set [4], 0.7 in data set [9] and 0.38 in data set [10]. In addition, the CC50 in data set [2] was 67 nM; in [5], 53 nM; in data set [6] it was 25 nM. For the same compound, the CC50 at 72 h is under 30 nM in data set [3], under 30 nM in [7], under 30 nM in [8] and 34 nM in data set [11].

Consider `CC(=O)O[C@H]1C(=O)[C@@]2(C)[C@H]([C@H](OC(=O)c3ccccc3)[C@]3(O)C[C@H](OC(=O)[C@H](OC(=O)CCCc4cn(CCCCCC(=O)N(CCCC[C@H](NC(=O)N[C@@H](CCC(=O)O)C(=O)O)C(=O)O)Cc5ccc(O)cc5)nn4)[C@@H](NC(=O)c4ccccc4)c4ccccc4)C(C)=C1C3(C)C)[C@]1(OC(C)=O)CO[C@@H]1C[C@@H]2O`, for which the Selectivity ratio in data set [1] was 0.78; in data set [4], 1.04; in data set [9], 2.19; in [10], 0.37. Also, the CC50 in [2] was 43 nM; in [5], 61 nM; in data set [6], 90 nM. Besides, the CC50 at 72 h in data set [3] amounted to 65 nM; in data set [7] it was 20 nM; in data set [8], 23 nM; in [11], 169 nM.

For the compound `CC(=O)O[C@H]1C(=O)[C@@]2(C)[C@H]([C@H](OC(=O)c3ccccc3)[C@]3(O)C[C@H](OC(=O)[C@H](OC(=O)CCCc4cn(CCCCCC(=O)N(CCCC[C@H](NC(=O)N[C@@H](CCC(=O)O)C(=O)O)C(=O)O)Cc5ccc(Br)cc5)nn4)[C@@H](NC(=O)c4ccccc4)c4ccccc4)C(C)=C1C3(C)C)[C@]1(OC(C)=O)CO[C@@H]1C[C@@H]2O`, the Selectivity ratio in [1] was 0.45; in data set [4], 0.85; in data set [9], 1.15; in [10], 0.33. In addition, the figures for the 50% cytotoxic concentration (CC50) in data set [2], in [5] and in data set [6] were 510 nM, 1130 nM and 876 nM, respectively. The 50% cytotoxic concentration (CC50) at 72 h is 45 nM in data set [3], under 30 nM in [7], 38 nM in data set [8] and 94 nM in data set [11].

Regarding `CC(=O)O[C@H]1C(=O)[C@@]2(C)[C@H]([C@H](OC(=O)c3ccccc3)[C@]3(O)C[C@H](OC(=O)[C@H](OC(=O)CCCc4cn(CCCCCCCCCCNC(=O)NCCCC[C@H](NC(=O)N[C@@H](CCC(=O)O)C(=O)O)C(=O)O)nn4)[C@@H](NC(=O)c4ccccc4)c4ccccc4)C(C)=C1C3(C)C)[C@]1(OC(C)=O)CO[C@@H]1C[C@@H]2O`, the Selectivity ratio worked out at 0.93 in [1], 0.63 in [4], 0.83 in data set [9] and 0.71 in data set [10]. The values for the 50% cytotoxic concentration (CC50) in data set [2], in [5] and in data set [6] were 60 nM, 132 nM and 75 nM, respectively. Also, the CC50 at 72 h in [3] came to 101 nM; in [7], 5 nM; in data set [8], 42 nM; in data set [11], 162 nM.

`CC(=O)O[C@H]1C(=O)[C@@]2(C)[C@H]([C@H](OC(=O)c3ccccc3)[C@]3(O)C[C@H](OC(=O)[C@H](OC(=O)CCCc4cn(CCCCCCCCCCC(=O)N(CCCC[C@H](NC(=O)N[C@@H](CCC(=O)O)C(=O)O)C(=O)O)Cc5ccc(Cl)cc5)nn4)[C@@H](NC(=O)c4ccccc4)c4ccccc4)C(C)=C1C3(C)C)[C@]1(OC(C)=O)CO[C@@H]1C[C@@H]2O`: the Selectivity ratio in [1] came to 0.47; in data set [4], 0.22; in data set [9], 0.24; in data set [10], 0.43. The cytotoxic concentration (CC50) in data set [2] amounted to 44 nM; in data set [5] it was 120 nM; in [6], 20 nM. The CC50 at 72 h is 24 nM in data set [3], under 30 nM in [7], 23 nM in [8] and 56.5 nM in data set [11].

Consider `CC(=O)O[C@H]1C(=O)[C@@]2(C)[C@H]([C@H](OC(=O)c3ccccc3)[C@]3(O)C[C@H](OC(=O)[C@H](OC(=O)CCCc4cn(CCCCCC(=O)N(CCCC[C@H](NC(=O)N[C@@H](CCC(=O)O)C(=O)O)C(=O)O)Cc5ccc(Cl)cc5)nn4)[C@@H](NC(=O)c4ccccc4)c4ccccc4)C(C)=C1C3(C)C)[C@]1(OC(C)=O)CO[C@@H]1C[C@@H]2O`, for which the Selectivity ratio is given as 0.7 in [1], 0.34 in data set [4], 0.91 in [9] and 0.26 in [10]. Moreover, the half-maximal cytotoxic concentration (CC50) in data set [2] is 1480 nM; in data set [5], 1670 nM; in [6], 1030 nM. In addition, the CC50 at 72 h in [3] was 48 nM; in data set [7], under 30 nM; in data set [8], 40 nM; in data set [11], 78 nM.
